± gives the expanded uncertainty stated by the source.
Assay: cn = amount concentration of the nth substance listed, in mol/dm3
Conditions: 101 kPa, Liquid

OC[C@@H](O)[C@@H](O)[C@H](O)[C@H](O)CO [mannitol] + O
mass density (293.15 K, c1 = 0.1): 1004.82 ± 1.4 kg/m3 | viscosity (293.15 K, c1 = 0.1): 1.096 ± 0.027 mPa·s | mass density (293.15 K, c1 = 0.2): 1010.89 ± 1.5 kg/m3 | viscosity (293.15 K, c1 = 0.2): 1.143 ± 0.028 mPa·s | mass density (293.15 K, c1 = 0.3): 1016.96 ± 1.6 kg/m3 | viscosity (293.15 K, c1 = 0.3): 1.203 ± 0.029 mPa·s | mass density (293.15 K, c1 = 0.4): 1023.03 ± 1.7 kg/m3 | viscosity (293.15 K, c1 = 0.4): 1.285 ± 0.031 mPa·s | mass density (293.15 K, c1 = 0.5): 1029.1 ± 1.8 kg/m3 | viscosity (293.15 K, c1 = 0.5): 1.336 ± 0.032 mPa·s | mass density (293.15 K, c1 = 0.6): 1035.17 ± 1.9 kg/m3 | viscosity (293.15 K, c1 = 0.6): 1.4 ± 0.033 mPa·s | mass density (293.15 K, c1 = 0.7): 1041.24 ± 2 kg/m3 | viscosity (293.15 K, c1 = 0.7): 1.472 ± 0.035 mPa·s | mass density (293.15 K, c1 = 0.8): 1047.31 ± 2.1 kg/m3 | viscosity (293.15 K, c1 = 0.8): 1.553 ± 0.037 mPa·s | mass density (303.15 K, c1 = 0.1): 1002.13 ± 1.3 kg/m3 | viscosity (303.15 K, c1 = 0.1): 0.8694 ± 0.022 mPa·s | mass density (303.15 K, c1 = 0.2): 1008.14 ± 1.4 kg/m3 | viscosity (303.15 K, c1 = 0.2): 0.9398 ± 0.023 mPa·s | mass density (303.15 K, c1 = 0.3): 1014.15 ± 1.5 kg/m3 | viscosity (303.15 K, c1 = 0.3): 0.986 ± 0.024 mPa·s | mass density (303.15 K, c1 = 0.4): 1020.16 ± 1.6 kg/m3 | viscosity (303.15 K, c1 = 0.4): 1.036 ± 0.025 mPa·s | mass density (303.15 K, c1 = 0.5): 1026.17 ± 1.7 kg/m3 | viscosity (303.15 K, c1 = 0.5): 1.085 ± 0.026 mPa·s | mass density (303.15 K, c1 = 0.6): 1032.18 ± 1.8 kg/m3 | viscosity (303.15 K, c1 = 0.6): 1.142 ± 0.028 mPa·s | mass density (303.15 K, c1 = 0.7): 1038.19 ± 1.9 kg/m3 | viscosity (303.15 K, c1 = 0.7): 1.197 ± 0.029 mPa·s | mass density (303.15 K, c1 = 0.8): 1044.2 ± 2 kg/m3 | viscosity (303.15 K, c1 = 0.8): 1.253 ± 0.03 mPa·s | mass density (313.15 K, c1 = 0.1): 998.28 ± 1.3 kg/m3 | viscosity (313.15 K, c1 = 0.1): 0.6961 ± 0.018 mPa·s | mass density (313.15 K, c1 = 0.2): 1004.5 ± 1.4 kg/m3 | viscosity (313.15 K, c1 = 0.2): 0.7468 ± 0.019 mPa·s | mass density (313.15 K, c1 = 0.3): 1010.72 ± 1.5 kg/m3 | viscosity (313.15 K, c1 = 0.3): 0.7918 ± 0.02 mPa·s | mass density (313.15 K, c1 = 0.4): 1016.94 ± 1.6 kg/m3 | viscosity (313.15 K, c1 = 0.4): 0.8201 ± 0.021 mPa·s | mass density (313.15 K, c1 = 0.5): 1023.16 ± 1.7 kg/m3 | viscosity (313.15 K, c1 = 0.5): 0.8642 ± 0.022 mPa·s | mass density (313.15 K, c1 = 0.6): 1029.38 ± 1.8 kg/m3 | viscosity (313.15 K, c1 = 0.6): 0.8954 ± 0.023 mPa·s | mass density (313.15 K, c1 = 0.7): 1035.6 ± 1.9 kg/m3 | viscosity (313.15 K, c1 = 0.7): 0.9383 ± 0.023 mPa·s | mass density (313.15 K, c1 = 0.8): 1041.82 ± 2 kg/m3 | viscosity (313.15 K, c1 = 0.8): 0.9934 ± 0.025 mPa·s | mass density (323.15 K, c1 = 0.1): 994.21 ± 1.4 kg/m3 | viscosity (323.15 K, c1 = 0.1): 0.5782 ± 0.016 mPa·s | mass density (323.15 K, c1 = 0.2): 999.82 ± 1.3 kg/m3 | viscosity (323.15 K, c1 = 0.2): 0.6062 ± 0.016 mPa·s | mass density (323.15 K, c1 = 0.3): 1005.23 ± 1.4 kg/m3 | viscosity (323.15 K, c1 = 0.3): 0.6356 ± 0.017 mPa·s | mass density (323.15 K, c1 = 0.4): 1011.02 ± 1.5 kg/m3 | viscosity (323.15 K, c1 = 0.4): 0.6706 ± 0.018 mPa·s | mass density (323.15 K, c1 = 0.5): 1017.33 ± 1.6 kg/m3 | viscosity (323.15 K, c1 = 0.5): 0.7104 ± 0.018 mPa·s | mass density (323.15 K, c1 = 0.6): 1024.45 ± 1.7 kg/m3 | viscosity (323.15 K, c1 = 0.6): 0.7458 ± 0.019 mPa·s | mass density (323.15 K, c1 = 0.7): 1030.32 ± 1.8 kg/m3 | viscosity (323.15 K, c1 = 0.7): 0.7849 ± 0.02 mPa·s | mass density (323.15 K, c1 = 0.8): 1036.78 ± 1.9 kg/m3 | viscosity (323.15 K, c1 = 0.8): 0.8456 ± 0.021 mPa·s

OC[C@@H](O)[C@@H](O[C@H]1O[C@H](CO)[C@@H](O)[C@H](O)[C@H]1O)[C@H](O)[C@@H](O)CO [4-O-α-D-glucopyranosyl-D-glucitol] + O
mass density (293.15 K, c1 = 0.1): 1009.45 ± 1.4 kg/m3 | viscosity (293.15 K, c1 = 0.1): 1.274 ± 0.031 mPa·s | mass density (293.15 K, c1 = 0.2): 1018.37 ± 1.6 kg/m3 | viscosity (293.15 K, c1 = 0.2): 1.381 ± 0.033 mPa·s | mass density (293.15 K, c1 = 0.3): 1027.29 ± 1.7 kg/m3 | viscosity (293.15 K, c1 = 0.3): 1.513 ± 0.036 mPa·s | mass density (293.15 K, c1 = 0.4): 1036.21 ± 1.9 kg/m3 | viscosity (293.15 K, c1 = 0.4): 1.66 ± 0.039 mPa·s | mass density (293.15 K, c1 = 0.5): 1045.13 ± 2 kg/m3 | viscosity (293.15 K, c1 = 0.5): 1.848 ± 0.043 mPa·s | mass density (293.15 K, c1 = 0.6): 1054.05 ± 2.2 kg/m3 | viscosity (293.15 K, c1 = 0.6): 2.009 ± 0.046 mPa·s | mass density (293.15 K, c1 = 0.7): 1062.97 ± 2.4 kg/m3 | viscosity (293.15 K, c1 = 0.7): 2.173 ± 0.05 mPa·s | mass density (293.15 K, c1 = 0.8): 1071.89 ± 2.5 kg/m3 | viscosity (293.15 K, c1 = 0.8): 2.304 ± 0.053 mPa·s | mass density (293.15 K, c1 = 0.9): 1080.81 ± 2.7 kg/m3 | viscosity (293.15 K, c1 = 0.9): 2.49 ± 0.057 mPa·s | mass density (293.15 K, c1 = 1): 1089.73 ± 2.8 kg/m3 | viscosity (293.15 K, c1 = 1): 2.68 ± 0.061 mPa·s | mass density (303.15 K, c1 = 0.1): 1007.32 ± 1.4 kg/m3 | viscosity (303.15 K, c1 = 0.1): 0.8869 ± 0.022 mPa·s | mass density (303.15 K, c1 = 0.2): 1016.24 ± 1.6 kg/m3 | viscosity (303.15 K, c1 = 0.2): 0.9747 ± 0.024 mPa·s | mass density (303.15 K, c1 = 0.3): 1025.16 ± 1.7 kg/m3 | viscosity (303.15 K, c1 = 0.3): 1.104 ± 0.027 mPa·s | mass density (303.15 K, c1 = 0.4): 1034.08 ± 1.9 kg/m3 | viscosity (303.15 K, c1 = 0.4): 1.225 ± 0.03 mPa·s | mass density (303.15 K, c1 = 0.5): 1043 ± 2 kg/m3 | viscosity (303.15 K, c1 = 0.5): 1.361 ± 0.032 mPa·s | mass density (303.15 K, c1 = 0.6): 1051.92 ± 2.2 kg/m3 | viscosity (303.15 K, c1 = 0.6): 1.536 ± 0.036 mPa·s | mass density (303.15 K, c1 = 0.7): 1060.84 ± 2.3 kg/m3 | viscosity (303.15 K, c1 = 0.7): 1.684 ± 0.04 mPa·s | mass density (303.15 K, c1 = 0.8): 1069.76 ± 2.5 kg/m3 | viscosity (303.15 K, c1 = 0.8): 1.825 ± 0.043 mPa·s | mass density (303.15 K, c1 = 0.9): 1078.68 ± 2.6 kg/m3 | viscosity (303.15 K, c1 = 0.9): 1.947 ± 0.045 mPa·s | mass density (303.15 K, c1 = 1): 1087.6 ± 2.8 kg/m3 | viscosity (303.15 K, c1 = 1): 2.132 ± 0.049 mPa·s | mass density (313.15 K, c1 = 0.1): 1003.78 ± 1.4 kg/m3 | viscosity (313.15 K, c1 = 0.1): 0.6982 ± 0.018 mPa·s | mass density (313.15 K, c1 = 0.2): 1012.7 ± 1.5 kg/m3 | viscosity (313.15 K, c1 = 0.2): 0.7706 ± 0.02 mPa·s | mass density (313.15 K, c1 = 0.3): 1021.62 ± 1.6 kg/m3 | viscosity (313.15 K, c1 = 0.3): 0.8464 ± 0.021 mPa·s | mass density (313.15 K, c1 = 0.4): 1030.54 ± 1.8 kg/m3 | viscosity (313.15 K, c1 = 0.4): 0.9455 ± 0.024 mPa·s | mass density (313.15 K, c1 = 0.5): 1039.46 ± 2 kg/m3 | viscosity (313.15 K, c1 = 0.5): 1.06 ± 0.03 mPa·s | mass density (313.15 K, c1 = 0.6): 1048.38 ± 2.1 kg/m3 | viscosity (313.15 K, c1 = 0.6): 1.177 ± 0.029 mPa·s | mass density (313.15 K, c1 = 0.7): 1057.3 ± 2.3 kg/m3 | viscosity (313.15 K, c1 = 0.7): 1.301 ± 0.031 mPa·s | mass density (313.15 K, c1 = 0.8): 1066.22 ± 2.4 kg/m3 | viscosity (313.15 K, c1 = 0.8): 1.438 ± 0.034 mPa·s | mass density (313.15 K, c1 = 0.9): 1075.14 ± 2.6 kg/m3 | viscosity (313.15 K, c1 = 0.9): 1.591 ± 0.038 mPa·s | mass density (313.15 K, c1 = 1): 1084.06 ± 2.7 kg/m3 | viscosity (313.15 K, c1 = 1): 1.741 ± 0.041 mPa·s | mass density (323.15 K, c1 = 0.1): 999.68 ± 1.3 kg/m3 | viscosity (323.15 K, c1 = 0.1): 0.6083 ± 0.016 mPa·s | mass density (323.15 K, c1 = 0.2): 1008.6 ± 1.4 kg/m3 | viscosity (323.15 K, c1 = 0.2): 0.652 ± 0.017 mPa·s | mass density (323.15 K, c1 = 0.3): 1017.52 ± 1.6 kg/m3 | viscosity (323.15 K, c1 = 0.3): 0.7175 ± 0.019 mPa·s | mass density (323.15 K, c1 = 0.4): 1026.44 ± 1.7 kg/m3 | viscosity (323.15 K, c1 = 0.4): 0.7827 ± 0.02 mPa·s | mass density (323.15 K, c1 = 0.5): 1035.36 ± 1.9 kg/m3 | viscosity (323.15 K, c1 = 0.5): 0.8723 ± 0.022 mPa·s | mass density (323.15 K, c1 = 0.6): 1044.28 ± 2 kg/m3 | viscosity (323.15 K, c1 = 0.6): 0.9616 ± 0.024 mPa·s | mass density (323.15 K, c1 = 0.7): 1053.2 ± 2.2 kg/m3 | viscosity (323.15 K, c1 = 0.7): 1.061 ± 0.026 mPa·s | mass density (323.15 K, c1 = 0.8): 1062.12 ± 2.4 kg/m3 | viscosity (323.15 K, c1 = 0.8): 1.15 ± 0.028 mPa·s | mass density (323.15 K, c1 = 0.9): 1071.04 ± 2.5 kg/m3 | viscosity (323.15 K, c1 = 0.9): 1.242 ± 0.03 mPa·s | mass density (323.15 K, c1 = 1): 1079.96 ± 2.7 kg/m3 | viscosity (323.15 K, c1 = 1): 1.385 ± 0.033 mPa·s

Reference: the NIST ThermoML archive (doi:10.1021/je9010486)
